Where two headings read alike, the source gives them in different places.
How the values were obtained:
[1] = target: human NaV1.6 (Homo sapiens (Human), UniProt Q9UQD0); assay: Sodium Influx Assay (Flux), NaV1.6
[2] = target: human NaV1.1 (Homo sapiens (Human), UniProt P35498); assay: Sodium Influx Assay (Flux), NaV1.1; assay type: cell-based; details: Trex HEK293 cells, ANG2 dye; arithmetic mean
[3] = target: human NaV1.5 (Homo sapiens (Human), UniProt Q14524); assay: cell-based
[4] = target: human NaV1.1 (SCN1A) (Homo sapiens (Human), UniProt P35498); assay: Electrophysiological Assay (EP, patch voltage clamp), NaV1.1; assay type: cell-based; details: HEK-293 cells, whole-cell patch clamp, inactivated state; arithmetic mean
Protocol: Sodium currents were measured using the patch clamp technique in the whole-cell configuration using either a PatchXpress automated voltage clamp or manually using an Axopatch 200B (Axon Instruments) or Model 2400 (A-M systems) amplifier. […] In some studies, the external sodium was reduced by equimolar replacement with choline. […] All recordings were performed at ambient temperature in a bath chamber with a volume of 150 μL. Control sodium currents were measured in 0.5% DMSO. Controls and representative compounds of the invention were applied to the recording chamber through a 4-pinch or 8-pinch valve bath perfusion system manufactured by ALA Scientific Instruments.
Series resistance compensation was applied (60-80%). […] All statistics in this study are given as mean±SD.
The membrane potential was maintained at a voltage where inactivation of the channel is complete. The voltage is then stepped back to a very negative (Vhold=−150 mV) voltage for 20 ms and then a test pulse is applied to quantify the compound block. […] The percent decrease in sodium current following wash-on of compound was taken as the percent block of sodium channels.

[5] = target: human NaV1.6 (SCN8A) (Homo sapiens (Human), UniProt Q9UQD0); assay: Electrophysiological Assay (EP, patch voltage clamp), NaV1.6; assay type: cell-based; details: HEK-293 cells, whole-cell patch clamp, inactivated state; arithmetic mean
From the text: Patch voltage clamp electrophysiology allows for the direct measurement and quantification of block of voltage-gated sodium channels (Nav's), and allows the determination of the time- and voltage-dependence of block which has been interpreted as differential binding to the resting, open, and inactivated states of the sodium channel (Hille, B., Journal of General Physiology (1977), 69: 497-515).
Nav1.1, Nav1.5 and Nav1.6 cDNAs (NM_001165964 (SCN1A), NM_000335 (SCN5A) and NM_014191 (SCN8A), respectively) were stably expressed in HEK-293 cells.
Sodium currents were measured using the patch clamp technique in the whole-cell configuration using either a PatchXpress automated voltage clamp or manually using an Axopatch 200B (Axon Instruments) or Model 2400 (A-M systems) amplifier. […] Control sodium currents were measured in 0.5% DMSO. […]
Currents were recorded at 40 kHz sampling frequency, filtered at […], and stored using a Digidata-1322A analogue/digital interface with the pClamp software (Axon Instruments). […]
The membrane potential was maintained at a voltage where inactivation of the channel is complete. The voltage is then stepped back to a very negative (Vhold=−150 mV) voltage for 20 ms and then a test pulse is applied to quantify the compound block. […]

[6] = read-out: Flux NaV1.6 IC50, Trex HEK293 cells, ANG2 dye, arithmetic mean

Chain of human NaV1.5 (Q14524 other isoform, or with tags, fused parts or gaps): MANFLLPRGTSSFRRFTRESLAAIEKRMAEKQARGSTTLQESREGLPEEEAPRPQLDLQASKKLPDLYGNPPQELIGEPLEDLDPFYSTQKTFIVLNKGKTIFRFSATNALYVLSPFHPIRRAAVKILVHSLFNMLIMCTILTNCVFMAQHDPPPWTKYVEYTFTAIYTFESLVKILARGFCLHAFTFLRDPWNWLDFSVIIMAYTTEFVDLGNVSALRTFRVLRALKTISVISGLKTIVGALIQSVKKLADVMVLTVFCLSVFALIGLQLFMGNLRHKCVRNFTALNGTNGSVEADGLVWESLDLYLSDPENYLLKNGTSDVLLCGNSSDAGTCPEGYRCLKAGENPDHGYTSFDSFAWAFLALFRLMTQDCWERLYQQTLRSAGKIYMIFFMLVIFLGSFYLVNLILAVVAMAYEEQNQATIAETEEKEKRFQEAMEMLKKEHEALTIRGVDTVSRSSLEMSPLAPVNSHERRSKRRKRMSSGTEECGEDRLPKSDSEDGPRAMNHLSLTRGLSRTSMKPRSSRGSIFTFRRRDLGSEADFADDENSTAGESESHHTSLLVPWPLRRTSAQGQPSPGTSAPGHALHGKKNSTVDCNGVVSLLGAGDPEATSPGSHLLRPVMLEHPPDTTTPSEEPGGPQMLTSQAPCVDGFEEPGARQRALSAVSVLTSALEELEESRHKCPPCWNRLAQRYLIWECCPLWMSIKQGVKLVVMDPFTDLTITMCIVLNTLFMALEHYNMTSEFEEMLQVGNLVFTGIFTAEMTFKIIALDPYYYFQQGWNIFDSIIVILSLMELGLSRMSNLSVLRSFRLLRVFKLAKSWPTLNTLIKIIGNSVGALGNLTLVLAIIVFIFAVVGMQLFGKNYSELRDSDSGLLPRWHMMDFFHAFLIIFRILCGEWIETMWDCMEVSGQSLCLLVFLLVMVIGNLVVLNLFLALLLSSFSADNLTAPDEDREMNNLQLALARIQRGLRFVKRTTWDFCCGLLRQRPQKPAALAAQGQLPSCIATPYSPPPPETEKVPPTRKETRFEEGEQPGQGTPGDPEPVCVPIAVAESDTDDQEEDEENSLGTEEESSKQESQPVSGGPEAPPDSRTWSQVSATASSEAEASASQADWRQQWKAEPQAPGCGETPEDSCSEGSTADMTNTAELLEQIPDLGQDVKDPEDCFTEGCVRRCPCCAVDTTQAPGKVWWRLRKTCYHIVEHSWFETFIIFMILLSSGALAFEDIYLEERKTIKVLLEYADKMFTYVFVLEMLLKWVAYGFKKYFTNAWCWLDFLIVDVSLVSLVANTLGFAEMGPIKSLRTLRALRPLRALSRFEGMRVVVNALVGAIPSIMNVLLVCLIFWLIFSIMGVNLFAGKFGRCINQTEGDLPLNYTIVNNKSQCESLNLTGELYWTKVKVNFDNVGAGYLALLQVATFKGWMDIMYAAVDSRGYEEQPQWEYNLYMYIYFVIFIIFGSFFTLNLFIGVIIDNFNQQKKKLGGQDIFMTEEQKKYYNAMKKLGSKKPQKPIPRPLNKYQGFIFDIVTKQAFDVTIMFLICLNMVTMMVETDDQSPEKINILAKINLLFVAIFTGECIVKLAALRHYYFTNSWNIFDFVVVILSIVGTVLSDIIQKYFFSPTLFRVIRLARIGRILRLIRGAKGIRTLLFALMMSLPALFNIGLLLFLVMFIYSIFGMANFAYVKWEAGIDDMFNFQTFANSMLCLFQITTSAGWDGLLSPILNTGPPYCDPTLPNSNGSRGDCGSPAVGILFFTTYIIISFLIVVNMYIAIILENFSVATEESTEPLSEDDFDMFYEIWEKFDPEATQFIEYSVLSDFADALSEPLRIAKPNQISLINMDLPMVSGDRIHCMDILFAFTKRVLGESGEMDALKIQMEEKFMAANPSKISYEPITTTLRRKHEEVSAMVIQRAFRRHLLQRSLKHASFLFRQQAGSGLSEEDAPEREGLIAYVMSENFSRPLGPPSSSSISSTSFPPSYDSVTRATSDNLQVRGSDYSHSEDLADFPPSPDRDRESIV
Chain of human NaV1.6 (SCN8A) (Q9UQD0 whole entry): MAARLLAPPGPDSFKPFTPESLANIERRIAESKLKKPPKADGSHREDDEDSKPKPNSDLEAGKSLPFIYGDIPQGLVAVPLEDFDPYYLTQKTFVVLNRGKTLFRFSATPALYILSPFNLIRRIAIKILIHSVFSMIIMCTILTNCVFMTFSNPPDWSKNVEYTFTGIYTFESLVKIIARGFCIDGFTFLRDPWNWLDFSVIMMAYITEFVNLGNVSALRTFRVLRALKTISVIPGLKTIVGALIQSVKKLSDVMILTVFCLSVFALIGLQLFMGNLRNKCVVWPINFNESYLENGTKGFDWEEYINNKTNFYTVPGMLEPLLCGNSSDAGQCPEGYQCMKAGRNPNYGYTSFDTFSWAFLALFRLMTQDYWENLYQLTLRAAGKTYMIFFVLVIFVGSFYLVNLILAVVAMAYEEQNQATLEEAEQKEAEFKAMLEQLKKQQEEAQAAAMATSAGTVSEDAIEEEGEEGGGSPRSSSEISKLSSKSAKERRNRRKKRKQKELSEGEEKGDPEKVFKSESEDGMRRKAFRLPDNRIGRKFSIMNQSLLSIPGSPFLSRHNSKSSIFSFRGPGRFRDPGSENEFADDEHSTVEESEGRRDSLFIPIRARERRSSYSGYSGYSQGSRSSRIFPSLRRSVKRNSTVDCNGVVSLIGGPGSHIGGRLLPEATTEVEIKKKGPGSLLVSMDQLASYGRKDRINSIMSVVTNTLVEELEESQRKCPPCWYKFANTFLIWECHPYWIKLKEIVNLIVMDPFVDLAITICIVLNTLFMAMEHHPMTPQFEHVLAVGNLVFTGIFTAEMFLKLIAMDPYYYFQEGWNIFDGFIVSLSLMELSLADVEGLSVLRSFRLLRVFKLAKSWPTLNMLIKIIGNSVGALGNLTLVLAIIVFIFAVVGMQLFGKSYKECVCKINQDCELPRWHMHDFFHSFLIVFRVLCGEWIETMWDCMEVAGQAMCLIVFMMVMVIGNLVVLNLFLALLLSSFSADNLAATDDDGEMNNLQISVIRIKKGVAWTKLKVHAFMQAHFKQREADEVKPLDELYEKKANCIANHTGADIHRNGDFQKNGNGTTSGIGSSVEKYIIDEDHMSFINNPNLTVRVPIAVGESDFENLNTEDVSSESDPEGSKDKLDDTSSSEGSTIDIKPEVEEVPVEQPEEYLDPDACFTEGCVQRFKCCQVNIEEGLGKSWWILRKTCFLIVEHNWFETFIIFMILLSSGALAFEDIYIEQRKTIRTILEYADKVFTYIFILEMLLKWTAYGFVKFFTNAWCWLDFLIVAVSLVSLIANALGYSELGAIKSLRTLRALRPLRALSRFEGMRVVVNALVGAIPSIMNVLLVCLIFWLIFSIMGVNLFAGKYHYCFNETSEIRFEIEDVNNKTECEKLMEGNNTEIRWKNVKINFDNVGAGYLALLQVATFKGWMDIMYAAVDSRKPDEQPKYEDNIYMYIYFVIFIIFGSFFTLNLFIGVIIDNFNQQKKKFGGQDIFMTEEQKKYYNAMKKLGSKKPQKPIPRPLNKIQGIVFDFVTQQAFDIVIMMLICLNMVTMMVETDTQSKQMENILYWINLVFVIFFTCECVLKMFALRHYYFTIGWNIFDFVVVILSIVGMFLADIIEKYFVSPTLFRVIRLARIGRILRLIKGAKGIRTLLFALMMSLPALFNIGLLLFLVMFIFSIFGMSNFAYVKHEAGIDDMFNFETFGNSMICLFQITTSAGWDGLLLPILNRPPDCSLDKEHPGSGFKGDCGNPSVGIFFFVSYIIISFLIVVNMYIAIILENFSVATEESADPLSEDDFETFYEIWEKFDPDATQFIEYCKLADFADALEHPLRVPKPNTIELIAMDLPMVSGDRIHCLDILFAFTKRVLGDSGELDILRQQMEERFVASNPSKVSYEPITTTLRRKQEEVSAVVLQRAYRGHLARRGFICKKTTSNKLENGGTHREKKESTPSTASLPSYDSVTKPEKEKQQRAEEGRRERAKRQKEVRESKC

Row | SMILES | IC50 [1, 6] [nM] | IC50 [2] [µM] | IC50 [1] [nM] | IC50 [3] [µM] | IC50 [4] [nM] | IC50 [5] [nM]
1 | C[C@@H]1[C@H](N(C)c2cc(F)c(S(=O)(=O)Nc3cscn3)cc2Cl)CCN1Cc1ccccc1 (racemic) [Example 309, rac-4-(((2R,3R)-1-benzyl-2-methylpyrrolidin-3-yl)(methyl)amino)-5-chloro-2-fluoro-N-(thiazol-4-yl)benzenesulfonamide] | 6860 | 8.44 |  |  |  | 
2 | C[C@H]1C[C@@H](Oc2ccc(S(=O)(=O)Nc3nccs3)cc2Cl)CCN1Cc1ccccc1 (relative stereo) [Example 72, 4-((cis-1-benzyl-2-methylpiperidin-4-yl)oxy)-3-chloro-N-(thiazol-2-yl)benzenesulfonamide] |  | 6.81 | 6070 | 13.5 |  | 
3 | Cc1cccc(CN2CC[C@H](Oc3ccc(S(=O)(=O)Nc4nccs4)cc3Cl)[C@H](C)C2)c1 (relative stereo) [Example 9A, 3-chloro-4-((cis-3-methyl-1-(3-methylbenzyl)piperidin-4-yl)oxy)-N-(thiazol-2-yl)benzenesulfonamide] |  |  | 1750 |  |  | 
4 | Cc1cccc(CN2CC[C@@H](Oc3ccc(S(=O)(=O)Nc4nccs4)cc3Cl)[C@H](C)C2)c1 (relative stereo) [Example 9B, 3-chloro-4-((trans-3-methyl-1-(3-methylbenzyl)piperidin-4-yl)oxy)-N-(thiazol-2-yl)benzenesulfonamide] |  |  | 874 | 8.75 |  | 
5 | C[C@@H](c1ccccc1)N1CC[C@H](N(C)c2cc(F)c(S(=O)(=O)Nc3cccc(F)n3)cc2Cl)C1 [Example 43, 2,2,2-trifluoroacetate] |  | 7.87 | 1890 | 17.1 |  | 
6 | C[C@@H]1CN(Cc2ccccc2)C[C@@H]1Nc1ccc(S(=O)(=O)Nc2nccs2)cc1Cl (relative stereo) [Example 75, 4-((cis-1-benzyl-4-methylpyrrolidin-3-yl)amino)-3-chloro-N-(thiazol-2-yl)benzenesulfonamide] |  | 4.19 | 661 | 8.99 |  | 
7 | C[C@H]1CN(Cc2ccccc2)C[C@@H]1Nc1ccc(S(=O)(=O)Nc2nccs2)cc1Cl (relative stereo) [Example 74, 4-((trans-1-benzyl-4-methylpyrrolidin-3-yl)amino)-3-chloro-N-(thiazol-2-yl)benzenesulfonamide] |  | 1.54 | 167 | 8.67 | 1030 | 25
8 | O=S(=O)(Nc1cscn1)c1ccc(O[C@@H]2C[C@H]3CC[C@@H](C2)N3Cc2cccc(C(F)F)c2)c(Cl)c1 [Example 256, 3-chloro-4-(((1R,3s,5S)-8-(3-(difluoromethyl)benzyl)-8-azabicyclo[3.2.1]octan-3-yl)oxy)-N-(thiazol-4-yl)benzenesulfonamide] | 3310 | 4.41 |  |  |  | 
9 | C[C@@H]1C[C@@H](Oc2ccc(S(=O)(=O)Nc3nccs3)cc2Cl)CCN1Cc1ccccc1 (relative stereo) [Example 73, 4-((trans-1-benzyl-2-methylpiperidin-4-yl)oxy)-3-chloro-N-(thiazol-2-yl)benzenesulfonamide] |  | 5.85 | 1880 | 13.1 |  | 
